According to patent publication US8703815B2, “Small molecules that covalently modify transthyretin” (The Scripps Research Institute, priority 2009, dated 2014):
Where two headings read alike, the source gives them in different places.

What was measured:
IMR-32 cells = assay: Compound cytotoxicity to IMR-32 cells in the absence of WT-TTR; format: cell-based, human
Method: Metabolically active cells reduce the resazurin redox dye to resorufin, a soluble fluorescent compound. [O'Brien et al., Eur. J. Biochem. 267:5421-5426 (2002)] The percentage of viable cells was calculated relative to cells treated with vehicle only (cell culture media and DMSO=100% viable).
The human neuroblastoma IMR-32 cell line (CCL-127 ATCC) was maintained in Opti-MEM® medium (Invitrogen), supplemented with 5% FBS, 1 mM Hepes buffer, 2 mM L-glutamine, 100 units/mL penicillin, 100 μg/mL streptomycin and 0.05 mg/mL CaCl2 (complete cell medium). Cells were seeded in black wall, clear bottom, tissue culture treated 96-well plates (Costar) at a density of 6,000 cells/well in complete cell medium and incubated overnight (about 18 hours) at 37° C.
Recombinant WT-TTR purified in the cold was used as the cytotoxic insult. The protein was buffer-exchanged in Hanks' Balanced Salt Solution (HBSS, Mediatech, Manassas, Va.) at 10° C. using a Centriprep® filter device (10 kDa MWCO, Millipore). Compounds (16 mM in DMSO) were diluted 1:1000 with WT-TTR (16 μM in HBSS, filter sterilized) or with HBSS only, vortexed and incubated for 18 hours at 37° C. WT-TTR (16 μM in HBSS) containing the same amount of DMSO was prepared in parallel and incubated under the same conditions.
The medium was removed from the cells and replaced immediately by the TTR/compound mixtures or HBSS previously diluted 1:1 in Opti-MEM® supplemented with 0.8 mg/mL BSA, 2 mM Hepes buffer, 4 mM L-glutamine, 200 units/mL penicillin, 200 μg/mL streptomycin and 0.1 mg/mL CaCl2. The cells were incubated 24 hours at 37° C. Cell viability was evaluated by a resazurin reduction assay.
Briefly, 10 μL of resazurin (500 μM, PBS) was added to each well and fluorescence quantified in a plate reader (Ex/Em 530/590 nm, Tecan Safire 2, Austria) after 1 hour of incubation at 37° C. Cell viability was calculated as percentage of fluorescence relative to cells treated only with vehicle (100% viability) after subtraction of blank fluorescence (wells without cells). Averages and standard errors from 2 independently performed studies, each performed at least in triplicate, were calculated using GraphPrism (San Diego, Calif., US).

K15A-TTR [1] = biological target: T1, K15A-TTR (Homo sapiens, UniProt P02766, K35A); assay: RP-HPLC analysis of reaction with K15A-TTR homotetramer; format: binding
T1 construct: composed of 127-residue β-sheet-rich subunits; made in house
Excerpt: A strictly analogous study performed with the K15A homotetrameric TTR mutant confirmed that K15 was essential for the observed chemoselective reaction between TTR and Compounds […] (FIG. 1A, bottom trace). […] However, it is important to note that Compounds 1-3 were only slightly less chemoselective (<5% reaction with K15A).
The ability of compounds A1 and A2, auxochromic analogs of previously discussed stilbenes [Klabunde et al., Nat. Struct. Biol. 2000, 7, 312-321; Connelly et al., Curr. Opin. Struc. Biol. 2010, 20, 54-62; Johnson et al., J. Med. Chem. 2008, 51, 6348-6358; Choi et al., J. Am. Chem. Soc. 2010, 132, 1359-1370; Choi et al., Nat. Chem. Biol. 2010, 6, 133-139; and Baures et al., Bioorg. Med. Chem. 1998, 6, 1389-1401] to form a chemoselective amide bond with the K15 residue of TTR was assessed by reverse-phase-HPLC and liquid chromatography-mass spectrometry analysis. […] The binding of the covalent modifier A2 to K15A-TTR (in the absence of amide bond conjugation) was confirmed by incubating A2 with K15A-TTR in phosphate buffer (pH 7) followed by K15A immunoisolation using a Sepharose® resin-conjugated anti-TTR polyclonal antibody [Purkey et al., Proc. Natl. Acad. Sci. U.S.A. 2001, 98, 5566-5571].
Recombinant WT-TTR was expressed as described previously [Lashuel et al., Biochemistry 38:13560-13573 (1999)]. For analysis of test compounds with TTR, each compound (1.5 μL in DMSO, 1.44 mM) was added to 300 μL of WT-TTR or K15A mutant TTR (3.6 μM, 10 mM sodium phosphate, 100 mM KCl, 1 mM EDTA, pH 7.0). The samples were vortexed, and incubated for 18 hours at 25° C. Reverse phase high performance liquid chromatography (RP-HPLC) was performed on a Water 600 E multi-solvent delivery system, using a Waters 486 tunable absorbance detector, a 717 autosampler, and a ThermoHypersil Keystone Betabasic-18 column μ150 Å pore size, 3 μm particle size, and mobile phase A; 0.1% TFA in 95% H2O+5% CH3CN and mobile phase B, 0.1% TFA in 95% CH3CN+5% H2O). Linear gradients were run from 100:0 to 0:100 A:B for 27 minutes.

K15A-TTR [2] = biological target: T1, K15A-TTR; assay: Non-covalent binding stoichiometry to K15A-TTR (immunocapture, HPLC); details: maximum of 2 equivalents, washing, high-pH dissociation
Excerpt: K15A-TTR and any compound bound to it was immunocaptured using a Sepharose-resin-conjugated anti-TTR antibody.
The ability of compounds A1 and A2, auxochromic analogs of previously discussed stilbenes [Klabunde et al., Nat. Struct. Biol. 2000, 7, 312-321; Connelly et al., Curr. Opin. Struc. Biol. 2010, 20, 54-62; Johnson et al., J. Med. Chem. 2008, 51, 6348-6358; Choi et al., J. Am. Chem. Soc. 2010, 132, 1359-1370; Choi et al., Nat. Chem. Biol. 2010, 6, 133-139; and Baures et al., Bioorg. Med. Chem. 1998, 6, 1389-1401] to form a chemoselective amide bond with the K15 residue of TTR was assessed by reverse-phase-HPLC and liquid chromatography-mass spectrometry analysis. […]
To 1 mL of WT- or K15A-TTR (5 μM in pH 7.0 phosphate buffer) in a 2 mL Eppendorf tube was added A2 (5 μL of a 2 mM solution in DMSO, final concentration: 10 μM) and then the solution was incubated at 37° C. for 24 hours on a rocker plate (30 rpm). […] After centrifugation, the supernatant was analyzed by reverse phase HPLC on a Water 600 E multi-solvent delivery system, using a Waters 486 tunable absorbance detector, a 717 autosampler, and a ThermoHypersil Keystone Betabasic-18 column (150 Å pore size, 3 μm particle size). […]

| Compound | cytotoxicity to IMR-32 cells in the absence of WT-TTR (IMR-32 cells) | reaction with K15A-TTR (in words) (K15A-TTR [1]) | equivalents non-covalently bound to K15A-TTR homotetramer (K15A-TTR [2]) | cytotoxicity to IMR-32 cells in the absence of WT-TTR (IMR-32 cells; human, IMR-32 neuroblastoma cells, 24 h, 8 µM) |
| --- | --- | --- | --- | --- |
| Cc1cc(/C=C/c2cccc(C(=O)Sc3ccccc3)c2)cc(C)c1O [Compound 2, (E)-S-phenyl 3-(4-hydroxy-3,5-dimethylstyryl)benzothioate] | None of these compounds were cytotoxic to IMR-32 cells |  |  |  |
| Cc1cc(/C=C/c2cc(C(=O)Sc3ccc(F)cc3)cc(N(C)C)c2)cc(C)c1O [Compound A2, (E)-S-4-fluorophenyl 3-(dimethylamino)-5-(4-hydroxy-3,5-dimethylstyryl)-benzothioate] |  | no conjugation | 0.88 equivalents |  |
| Cc1cc(/C=C/c2cccc(C(=O)Oc3ccc(F)cc3)c2)cc(C)c1O [Compound 4, (E)-4-fluorophenyl 3-(4-hydroxy-3,5-dimethylstyryl)benzoate] |  | no reaction could be detected | 1.4 equivalents | None of these compounds were cytotoxic to IMR-32 cells |
